The results in this text go back to BindingDB's records for doi:10.3109/14756360903169592 (Ufr Des Sciences Pharmaceutiques Et Ingenierie De La Sante, 2010).

This test addresses T1, Protein farnesyltransferase subunit beta/geranylgeranyltransferase type-1 subunit alpha (Saccharomyces cerevisiae (strain ATCC 204508 / S288c), UniProt P22007+P29703).
T1 sequence (P22007 whole entry): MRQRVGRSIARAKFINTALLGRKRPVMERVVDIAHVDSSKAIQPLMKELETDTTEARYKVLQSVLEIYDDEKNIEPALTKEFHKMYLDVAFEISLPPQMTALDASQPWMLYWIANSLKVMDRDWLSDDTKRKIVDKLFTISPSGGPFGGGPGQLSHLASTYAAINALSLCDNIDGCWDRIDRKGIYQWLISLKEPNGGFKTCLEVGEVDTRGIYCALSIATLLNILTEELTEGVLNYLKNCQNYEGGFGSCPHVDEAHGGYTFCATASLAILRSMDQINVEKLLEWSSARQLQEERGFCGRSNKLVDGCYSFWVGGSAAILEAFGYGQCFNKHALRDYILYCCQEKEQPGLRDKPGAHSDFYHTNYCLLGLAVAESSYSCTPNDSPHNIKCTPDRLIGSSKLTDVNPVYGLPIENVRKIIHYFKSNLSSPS
T1 sequence (P29703 whole entry): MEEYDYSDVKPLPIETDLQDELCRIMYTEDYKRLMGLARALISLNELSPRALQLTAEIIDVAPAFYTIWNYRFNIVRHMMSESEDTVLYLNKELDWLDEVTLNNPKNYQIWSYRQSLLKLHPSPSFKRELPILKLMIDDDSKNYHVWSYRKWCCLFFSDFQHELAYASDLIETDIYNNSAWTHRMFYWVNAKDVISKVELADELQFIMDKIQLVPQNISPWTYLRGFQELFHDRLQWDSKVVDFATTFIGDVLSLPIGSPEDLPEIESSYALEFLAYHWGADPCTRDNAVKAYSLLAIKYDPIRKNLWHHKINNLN
In words: Fluorescence-Based PFTase Inhibition Assay. Conditions: pH 7.5; 30 °C. Here is the method:
Assays were realized on 96-well plates, prepared with Biomek NKMC and Biomek 3000 from Beckman Coulter and read on a Wallac Victor fluorimeter from PerkinElmer. Per well, 20 μL of farnesyl pyrophosphate (10 μM) was added to 180 μL of a solution containing 2 μL of varied concentrations of tested compounds (dissolved in methanol) and 178 μL of a solution composed by 0.1 mL of partially purified recombinant yeast FTase (2.2mg/mL) and 7.0 mL of Dansyl-GCVLS peptide (in the following buffer: 5.8 mM DTT, 12 mM MgCl2, 12 μM ZnCl2, and 0.09% (w/v) CHAPS, 53 mM Tris/HCl, pH 7.5). Then the fluorescence development was recorded for 15 min (0.7 s per well, 20 repeats) at 30°C with an excitation filter at 340 nm and an emission filter at 486 nm.
In the case of `C=C1C(=O)O[C@H]2C[C@H](C)C(C(CC(C)OC(C)=O)OC(C)=O)=CC[C@H]12` (stereo partly drawn) [Acetyl-4-epi-isoxanthanol (6)], the half-maximal inhibitory concentration (IC50) stood at 40 µM.
Under `CC(=O)/C=C/C1=CC[C@H]2[C@H](C[C@@H]1C)OC(=O)[C@@H]2C` [11β,13-Dihydroxanthatin (10)] stands 210 µM; under `C=C1C(=O)O[C@@H]2C3C4(C=C[C@@]3(C)C3(C4)C(=O)O[C@@H]4[C@H]5C(C)=CC(=O)[C@H]5[C@@H](C)C[C@H](OC(=O)/C(C)=C\C)[C@H]43)[C@](C)(O)CC[C@@H]12` (stereo partly specified) [Arteminolide C'], 0.95 µM; under `C=C1C(=O)O[C@H]2C[C@H](C)[C@@]3(/C=C/C(C)=O)O[C@H]3C[C@H]12` [Xanthatin-1,5β-epoxide (4)], 500 µM.
Next, `C=C1C(=O)O[C@@H]2C[C@H](C)[C@]3(/C=C/C(C)=O)O[C@@H]3C[C@H]12` [8-Epi-xanthatin-1,5α-epoxide]: 58 µM; `C=C1C(=O)O[C@@H]2C[C@H](C)C(/C=C/C(C)=O)=CC[C@H]12` [8-Epi-xanthatin]: 64 µM; `C=C1C(=O)O[C@H]2C[C@H](C)C(/C=C/C(C)=O)=CC[C@H]12` [Xanthatin (2)]: 100 µM.
`CC(=O)CCC1=CC[C@@H]2C(C)C(=O)O[C@H]2C[C@@H]1C` (stereo partly specified) [11,13-Dihydroxanthinosin (13)] registered an IC50 of 240 µM.
As for `C=C1C(=O)O[C@H]2C[C@H](C)C(C(CC(C)O)OC(C)=O)=CC[C@H]12` (stereo partly drawn) [α-Methylene-γ-lactone, 3], the IC50 was over 1000 µM.
`CC(=O)/C=C/[C@]12O[C@H]1C[C@H]1[C@H](C[C@@H]2C)OC(=O)[C@@H]1C` [11β,13-Dihydroxanthatin-1,5β-epoxide (12)] came in with an IC50 of 66 µM.
`C/C=C(/C)C(=O)O[C@H]1C[C@H](C)[C@@H]2C(=O)C=C(C)[C@@H]2[C@H]2OC(=O)C3(CC45C=C[C@]3(C)C4[C@H]3OC(=O)C(C)[C@@H]3CC[C@@]5(C)O)[C@@H]21` (stereo partly specified) [Arteminolide C] registered an IC50 of 1 µM.
`C/C=C(/C)C(=O)O[C@H]1[C@H]2[C@H](C)C(=O)O[C@@H]2C[C@@H](C)[C@@H]2C=CC(=O)[C@]21C` [6-O-angeloylprenolin] yielded an IC50 of 18.8 µM.
For the compound `C=C1C(=O)O[C@H]2C[C@H](C)[C@]3(/C=C/C(C)=O)O[C@@H]3C[C@H]12` [Xanthatin-1,5α-epoxide (5)], half-maximal inhibition (IC50) required 100 µM.
Under `C=C1C(=O)O[C@H]2C[C@H](C)C(C(CC(C)=O)OC(C)=O)=CC[C@H]12` (stereo partly drawn) [α-Methylene-γ-lactone, 1] stands 150 µM.
Next, `CC(=O)/C=C/[C@@]12O[C@@H]1C[C@H]1[C@H](C[C@@H]2C)OC(=O)[C@@H]1C` [11β,13-Dihydroxanthatin-1,5α-epoxide (11)]: 90 µM; `CC(=O)OC(CC(C)O)C1=CC[C@H]2[C@H](C[C@@H]1C)OC(=O)[C@@H]2C` (stereo partly drawn) [11β,13-Dihydro-4-epi-isoxanthanol (16)]: 633 µM; `CC(=O)OC(C)CC(OC(C)=O)C1=CC[C@H]2[C@H](C[C@@H]1C)OC(=O)[C@@H]2C` (stereo partly drawn) [Acetyl-11β,13-dihydro-4-epi-isoxanthanol (15)]: 40 µM.
Next, `CC(=O)OC(C)/C=C/C1=CC[C@H]2[C@H](C[C@@H]1C)OC(=O)[C@@H]2C` (stereo partly drawn) [2,3-(E)-Dehydro-4-epi-isoxanthanol (9)]: 900 µM.
With `C=C1C(=O)O[C@H]2C[C@H](C)c3cc(C(C)=O)oc3C[C@H]12` [3,5-Oxyxanthatin (7)], the IC50 was over 1000 µM.
Next, `CC(O)/C=C/C1=CC[C@H]2[C@H](C[C@@H]1C)OC(=O)[C@@H]2C` (stereo partly drawn) [4,11β,13-Tetrahydroxanthatin (8)]: over 1000 µM; `CC(O)CCC1=CC[C@@H]2C(C)C(=O)O[C@H]2C[C@@H]1C` (stereo partly specified) [4,11,13-Tetrahydroxanthinosin (14)]: over 1000 µM.

What is called IC50 is the concentration needed to halve the response being measured. A high value points to a need for much substance.
